Measured values from patent publication US10770169B2, “Method of providing a treatment to a subject based on a dynamic pathway map” (THE REGENTS OF THE UNIVERSITY OF CALIFORNIA, priority 2010, dated 2020).
Like-named read-outs stand apart in the source and are kept apart here.

Experiments:
[1] = system: panel of 55 breast cancer cell lines; assay: Cell growth inhibition assay (Cell Titer Glo, 72 h, 9 doses; GI50, TGI, LC50); type: cell-based, human; details: Homo sapiens, read-out: GI50 (converted)
[2] = system: luminal, basal, claudin-low and ERBB2AMP breast cancer cell lines; assay: Associations of clinically relevant subtypes and response (non-parametric ANOVA or t-test on GI50 ranks); type: cell-based, human; details: Table 6; most sensitive subtype, FDR p<0.20
Method in brief: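 Significance was set at FDR p<0.20 after combining p-values across three test sets. Subtype–response associations came from rank-based non-parametric ANOVA or t-tests on GI50. For three-class comparisons, post-hoc tests of each group against the rest identified the most sensitive group, with FDR correction.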

[3] = system: breast cancer cell lines with aberrant vs normal copy number; assay: Association of recurrent copy number changes and response (t-test on GI50); type: cell-based, human; details: FDR p<0.2
Method in brief: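 A t-test compared GI50 between cell lines with high amplification at 8q24 (MYC), 11q13 (CCND1) or 20q13 (STK15/AURKA) and lines with low or no amplification, grouped together. Lines whose GI50 equalled the maximum concentration tested were excluded. Compounds with any group under five samples were also excluded.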

[4] = molecular target: CDK4 (Homo sapiens, UniProt P11802); details: cited from earlier work
CDK4, sequence (P11802 whole entry, species assumed): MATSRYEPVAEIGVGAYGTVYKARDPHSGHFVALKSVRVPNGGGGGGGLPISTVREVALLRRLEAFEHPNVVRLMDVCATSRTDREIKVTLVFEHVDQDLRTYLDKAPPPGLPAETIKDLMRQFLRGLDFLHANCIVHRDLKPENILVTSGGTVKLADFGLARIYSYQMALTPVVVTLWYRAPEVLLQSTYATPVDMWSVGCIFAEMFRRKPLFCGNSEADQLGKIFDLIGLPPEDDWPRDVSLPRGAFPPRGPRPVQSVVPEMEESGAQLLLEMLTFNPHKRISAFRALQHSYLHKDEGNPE
CDK4, sequence (P24385 whole entry partner, species assumed): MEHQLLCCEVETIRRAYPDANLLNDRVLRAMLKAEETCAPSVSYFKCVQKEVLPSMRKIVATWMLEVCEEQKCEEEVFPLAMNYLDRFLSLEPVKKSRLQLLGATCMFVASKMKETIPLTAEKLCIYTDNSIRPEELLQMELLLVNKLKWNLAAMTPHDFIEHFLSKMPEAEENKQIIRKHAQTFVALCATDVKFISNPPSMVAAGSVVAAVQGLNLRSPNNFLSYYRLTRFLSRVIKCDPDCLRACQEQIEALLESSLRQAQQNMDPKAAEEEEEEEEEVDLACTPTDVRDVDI

`O=C1c2ccccc2-[n+]2ccc3c([nH]c4ccccc43)c21` [Fascaplysin] gave a GI50 ([1]; 600MPE cell line, censored GI50 values) of 288 nM, a GI50 ([1]; AU565, AU565 cell line, censored GI50 values) of 120 nM and a GI50 ([1]; AU565, cell line AU565) of 120 nM. The GI50 ([1]; BT-20, BT20 cell line, censored GI50 values) was 309 nM, the GI50 ([1]; BT-20, cell line BT20) was 309 nM and the GI50 ([1]; BT-474, BT474 cell line, censored GI50 values) was 191 nM. It also gave a GI50 ([1]; BT-474, cell line BT474) of 191 nM, a GI50 ([1]; BT-483, BT483 cell line, censored GI50 values) of 66.1 nM and a GI50 ([1]; BT-483, cell line BT483) of 66.1 nM. For the same compound, the GI50 ([1]; BT-549, BT549 cell line, censored GI50 values) was 513 nM, the GI50 ([1]; BT-549, cell line BT549) was 513 nM and the GI50 ([1]; CAMA-1, CAMA1 cell line, censored GI50 values) was 245 nM. The GI50 ([1]; CAMA-1, cell line CAMA1) was 245 nM, the GI50 ([1]; HCC38, HCC38 cell line, censored GI50 values) was 275 nM and the GI50 ([1]; HCC38, cell line HCC38) was 275 nM. For the same compound, the GI50 ([1]; HCC70, HCC70 cell line, censored GI50 values) was 126 nM, the GI50 ([1]; HCC70, cell line HCC70) was 126 nM and the GI50 ([1]; HCC202, HCC202 cell line, censored GI50 values) was 42.7 nM. For the same compound, the GI50 ([1]; HCC202, cell line HCC202) was 42.7 nM, the GI50 ([1]; HCC1143, HCC1143 cell line, censored GI50 values) was 275 nM and the GI50 ([1]; HCC1143, cell line HCC1143) was 275 nM. The GI50 ([1]; HCC1187, HCC1187 cell line, censored GI50 values) was 15.5 nM, the GI50 ([1]; HCC1187, cell line HCC1187) was 15.5 nM and the GI50 ([1]; HCC1395, HCC1395 cell line, censored GI50 values) was 324 nM. It also gave a GI50 ([1]; HCC1395, cell line HCC1395) of 324 nM, a GI50 ([1]; HCC1419, HCC1419 cell line, censored GI50 values) of 263 nM and a GI50 ([1]; HCC1419, cell line HCC1419) of 263 nM. The GI50 ([1]; HCC1428, HCC1428 cell line, censored GI50 values) was 37.2 nM, the GI50 ([1]; HCC1428, cell line HCC1428) was 37.2 nM and the GI50 ([1]; HCC1500, HCC1500 cell line, censored GI50 values) was 224 nM. The GI50 ([1]; HCC1500, cell line HCC1500) was 224 nM, the GI50 ([1]; HCC1806, HCC1806 cell line, censored GI50 values) was 257 nM and the GI50 ([1]; HCC1806, cell line HCC1806) was 257 nM. The GI50 ([1]; HCC1937, HCC1937 cell line, censored GI50 values) was 389 nM, the GI50 ([1]; HCC1937, cell line HCC1937) was 389 nM and the GI50 ([1]; HCC1954, HCC1954 cell line, censored GI50 values) was 269 nM. For the same compound, the GI50 ([1]; HCC1954, cell line HCC1954) was 269 nM, the GI50 ([1]; HCC2185 cell line, censored GI50 values) was 126 nM and the GI50 ([1]; HCC3153 cell line, censored GI50 values) was 347 nM. It also gave a GI50 ([1]; LY2 cell line, censored GI50 values) of 7.94 nM, a GI50 ([1]; MCF7, MCF7 cell line, censored GI50 values) of 191 nM and a GI50 ([1]; MCF7, cell line MCF7) of 191 nM. The GI50 ([1]; MDA-MB-134-VI, MDAMB134VI cell line, censored GI50 values) was 224 nM, the GI50 ([1]; MDA-MB-157, MDAMB157 cell line, censored GI50 values) was 170 nM and the GI50 ([1]; MDA-MB-157, cell line MDAMB157) was 170 nM. The GI50 ([1]; MDA-MB-175-VII, MDAMB175VII cell line, censored GI50 values) was 191 nM, the GI50 ([1]; MDA-MB-231, MDAMB231 cell line, censored GI50 values) was 251 nM and the GI50 ([1]; MDA-MB-231, cell line MDAMB231) was 251 nM. For the same compound, the GI50 ([1]; MDA-MB-361, MDAMB361 cell line, censored GI50 values) was 81.3 nM, the GI50 ([1]; MDA-MB-361, cell line MDAMB361) was 81.3 nM and the GI50 ([1]; MDA-MB-415, MDAMB415 cell line, censored GI50 values) was 60.3 nM. It also gave a GI50 ([1]; MDA-MB-415, cell line MDAMB415) of 60.3 nM, a GI50 ([1]; MDA-MB-436, MDAMB436 cell line, censored GI50 values) of 417 nM and a GI50 ([1]; MDA-MB-436, cell line MDAMB436) of 417 nM. For the same compound, the GI50 ([1]; MDA-MB-453, MDAMB453 cell line, censored GI50 values) was 87.1 nM, the GI50 ([1]; MDA-MB-453, cell line MDAMB453) was 87.1 nM and the GI50 ([1]; MDA-MB-468, MDAMB468 cell line, censored GI50 values) was 77.6 nM. The GI50 ([1]; MDA-MB-468, cell line MDAMB468) was 77.6 nM, the GI50 ([1]; SK-BR-3, SKBR3 cell line, censored GI50 values) was 224 nM and the GI50 ([1]; SK-BR-3, cell line SKBR3) was 224 nM. For the same compound, the GI50 ([1]; SUM52PE, SUM52PE cell line, censored GI50 values) was 182 nM, the GI50 ([1]; SUM52PE, cell line SUM52PE) was 182 nM and the GI50 ([1]; SUM149PT, SUM149PT cell line, censored GI50 values) was 398 nM. It also gave a GI50 ([1]; SUM149PT, cell line SUM149PT) of 398 nM, a GI50 ([1]; SUM185PE, SUM185PE cell line, censored GI50 values) of 55 nM and a GI50 ([1]; SUM185PE, cell line SUM185PE) of 55 nM. For the same compound, the GI50 ([1]; SUM225CWN, SUM225CWN cell line, censored GI50 values) was 67.6 nM, the GI50 ([1]; SUM225CWN, cell line SUM225CWN) was 67.6 nM and the GI50 ([1]; SUM1315MO2, SUM1315MO2 cell line, censored GI50 values) was 417 nM. It also gave a GI50 ([1]; SUM-159-PT, SUM159PT cell line, censored GI50 values) of 427 nM, a GI50 ([1]; SUM-159-PT, cell line SUM159PT) of 427 nM and a GI50 ([1]; T47D, T47D cell line, censored GI50 values) of 457 nM. For the same compound, the GI50 ([1]; T47D, cell line T47D) was 457 nM, the GI50 ([1]; UACC-893, UACC893 cell line, censored GI50 values) was 186 nM and the GI50 ([1]; UACC-893, cell line UACC893) was 186 nM. It also gave a GI50 ([1]; ZR-75-1, ZR751 cell line, censored GI50 values) of 355 nM, a GI50 ([1]; ZR-75-1, cell line ZR751) of 355 nM and a GI50 ([1]; ZR-75B, ZR75B cell line, censored GI50 values) of 407 nM. For the same compound, the GI50 ([1]; ZR-75B, cell line ZR75B) was 407 nM, the GI50 ([1]; cell line 600MPE) was 288 nM and the GI50 ([1]; cell line HCC2185) was 126 nM. For the same compound, the GI50 ([1]; cell line HCC3153) was 347 nM, the GI50 ([1]; cell line LY2) was 7.94 nM and the GI50 ([1]; cell line MDAMB134V) was 224 nM. The GI50 ([1]; cell line MDAMB175V) was 191 nM, the GI50 ([1]; cell line SUM1315MO) was 417 nM and the Subtype specificity [2] was “Luminal”. The “association of response with homozygous deletion at 9p21 (CDKN2A)” value [3] was “associated with response” and the “inhibition of CDK4” value [4] was “inhibited CDK4”.
